# Key:
# Staphylococcus aureus [1] = assay: Antimicrobial activity against methicillin-sensitive Staphylococcus aureus after 14 to 16 hrs; assay type: functional
# Staphylococcus aureus [2] = assay: Antimicrobial activity against methicillin-resistant Staphylococcus aureus after 14 to 16 hrs; assay type: functional
# Streptococcus pneumoniae [3] = assay: Antimicrobial activity against penicillin-sensitive Streptococcus pneumoniae after 14 to 16 hrs; assay type: functional
# Streptococcus pneumoniae [4] = assay: Antimicrobial activity against penicillin-resistant Streptococcus pneumoniae after 14 to 16 hrs; assay type: functional
# Enterococcus faecalis = assay: Antimicrobial activity against vancomycin-sensitive Enterococcus faecalis after 14 to 16 hrs; assay type: functional
# Enterococcus faecium = assay: Antimicrobial activity against vancomycin-resistant Enterococcus faecium after 14 to 16 hrs; assay type: functional
# Escherichia coli = assay: Antimicrobial activity against Escherichia coli after 14 to 16 hrs; assay type: functional
# B16-F10 = assay: Cytotoxicity against mouse B16F10 cells after 3 to 6 hrs; assay type: functional, cell-based
compound,measurement,setting,value
COC(CC(C)C(O)/C=C/C=C/CNC(=O)C(C)(C)C(O)\C(C)=C/C=C\C=C\C(C)=C(/C)[N+](=O)[O-])C1(O)C(C)C(=O)N(C)C12C(=O)OC2C (stereo not drawn) [LAJOLLAMYCIN],MIC,Staphylococcus aureus [1],4 µg/mL
same,MIC,Staphylococcus aureus [2],5 µg/mL
same,MIC,Streptococcus pneumoniae [3],2 µg/mL
same,MIC,Streptococcus pneumoniae [4],1.5 µg/mL
same,MIC,Enterococcus faecalis,14 µg/mL
same,MIC,Enterococcus faecium,20 µg/mL
same,MIC,Escherichia coli,12 µg/mL
same,EC50,B16-F10,9.6 µM
